Reference: patent publication US20160051567A1, “PREVENTION AND TREATMENT OF KIDNEY DAMAGE” (METSELEX, INC., priority 2013, published 2016)

Experiments:
rat model of AKI [1] = assay: Rat model of AKI (warm ischemia reperfusion), blood urea levels; type: in vivo; conditions: 400 mg/kg/day intraperitoneal
Procedure: (§1) Rat model of AKI: All experiments were performed in accordance with the Institutional Animal Care and Use Committee. Six to eight week old Sprague-Dawley rats were anaesthetized by isoflurane gas, a midline abdominal incision was made, and bilateral renal pedicles were clamped for 45 minutes maintaining body temperature at 37° C. After removing the clamps, the abdomen was closed in two layers by using 4-0 absorbable sutures and Reflex 9 mm clips. Blood samples were obtained daily by tail vein puncture. Blood urea levels were measured by the improved Jung method using the QuantiChrom™ Urea Assay Kit as per manufacturer's protocol. Kidneys were harvested five days following surgery.
(§2) Administration of TUDCA: 200 mg/mL of TUDCA (Sigma) was dissolved in phosphate buffered saline at pH 7.5. 400 mg/kg of TUDCA or equal volume of vehicle was administered to rats by daily intraperitoneal injection from three days prior to surgery […] to five days (day 5) following surgery. The TUDCA dose was based on previous studies and its solubility at physiological pH.

rat model of AKI [2] = assay: Histological injury score (PAS stain) of kidney sections after AKI; type: in vivo; conditions: five days after AKI, 400 mg/kg/day
Procedure: as §1, §2
(§3) Histology and TUNEL assay: 4% paraformaldehyde-fixed, paraffin-embedded 5 μm kidney sections were stained with Periodic acid-Schiff (PAS) stain using standard methods. Histological examination was performed by a renal pathologist in a blinded fashion. Histological injury was scored based on the percentage of tubular cell necrosis, dilation, and cell detachment as per the PAS protocol. Reagents for the PAS assay were purchased from Sigma-Aldrich (St. Louis, Mo.) and the accompanying protocol was used. […] Apoptotic cells were detected by TUNEL assay using an APO-DIRECT™ kit as per manufacturer's protocol. The average injury score and percentage of TUNEL-positive cells from the renal cortex (superficial and deep), medulla (outer and inner), and papilla were counted and calculated separately and averaged to obtain the total score. […]

rat model of AKI [3] = assay: TUNEL assay of kidney sections after AKI; type: in vivo
Procedure: as §1, with “surgery. […]” for “surgery.”
as §3, with “Histological examination was performed by a renal pathologist in a blinded fashion.” left out, “protocol.” for “protocol. Reagents for the PAS assay were purchased from Sigma-Aldrich (St. Louis, Mo.) and the accompanying protocol was used.”

caspase-9 = assay: Western blot for active caspase-9 in kidney after AKI; type: in vivo; conditions: rat kidney after AKI, Western blot with densitometry, p<0.01
Procedure: as §1
Administration of TUDCA: 200 mg/mL of TUDCA (Sigma) was dissolved in phosphate buffered saline at pH 7.5. […]
(§4) Protein extraction: Frozen kidney tissue was ground in liquid nitrogen using a pestle and mortar. […] The amount of protein present in the solution was quantified by the Bicinchoninic Acid Protein Assay kit as per manufacturer's protocol.
Western blot analysis: 20 μg of protein was mixed with SDS-PAGE sample buffer, boiled for 5 minutes, electrophoresed on a 12% Tris-HCl SDS-PAGE gel for 1 hour at 200 V, and electroblotted onto a nitrocellulose membrane. […] The immunoblot was detected using SuperSignal West Femto Maximum Sensitivity Substrate Kit. […]

[4] = test system: human renal proximal tubular epithelial cells (RPTE); assay: Cytotoxicity assay (MultiTox-Glo) in RPTE cells; type: cell-based; conditions: 24 hours
Procedure: (§5) Cell culture: RPTE cells were grown in Renal Epithelial Cell Basal Medium (REBM) with full supplements at 37° C. in 5% CO2 incubator as per supplier's instructions. RPTE cells were able to proliferate for 6-8 passages under the culture conditions.
Viability and Cytotoxicity Assays: Cytotoxicity and viability were determined using MultiTox-Glo Multiplex Cytotoxicity Assay kit as per manufacturer's protocols. RPTE cells were seeded in 96-well culture plates at a density of 1.2×10^4 cells per well. Subsequently, TUDCA was added to the wells to achieve final concentrations of 15, 150, 300, 450, 600, and 1200 μM. Following 24 hours of culture, to determine viability, 50 μL of GF-AFC Reagent was added to each well. The plates were gently shaken and incubated at 37° C. for 30 minutes in the dark. The cell viability was determined by measuring fluorescence at 400 nmEx/505 nmEm. Subsequently, to determine cytotoxicity, 50 μL of AAF-Glo Reagent was added to each well. The plates were shaken gently and incubated at room temperature for 15 minutes in the dark. Cytotoxicity was determined by measuring luminescence as per manufacturer's protocol.

caspase-3 = assay: Caspase-3 activity assay in RPTE cells after cryopreservation injury; type: cell-based, human; conditions: 150-600 μM, dose-dependent, p<0.05
Procedure: as §5
Cryopreservation injury: We have utilized a published cell culture model of cryopreservation injury. In brief, RPTE cells were grown to 80% confluence in the complete medium containing TUDCA or vehicle. The complete medium was then replaced with University of Wisconsin solution containing TUDCA or vehicle. The culture plates were subsequently incubated in a temperature-regulated refrigerator at 4° C. for 48 hours. […]
as §4
Caspase-3 activity assay: The caspase-3 activity in kidney and RPTE extracts was quantified using Apo-One® Homogeneous Caspase-3/7 Assay kit as per the manufacturer's protocol. […] Fluorescence was measured by Spectramax M12 fluorescent plate reader (Molecular Devices) using wavelengths of 485 nmEx/520 nmEm. […]

cell culture = conditions: has been shown; cited from earlier work

C[C@H](CCC(=O)NCCS(=O)(=O)O)[C@H]1CC[C@H]2[C@@H]3[C@@H](O)C[C@@H]4C[C@H](O)CC[C@]4(C)[C@H]3CC[C@]12C [TUDCA, tauroursodeoxycholic acid]
elevation in blood urea levels vs vehicle group (rat model of AKI [1]; days 1 (p<0.001) and 2 (p<0.01) following AKI): significantly less elevation in blood urea levels
blood urea vs vehicle group (rat model of AKI [1]; days 3-5 following AKI): blood urea was lower in the TUDCA-treated rats, the difference was not statistically significant
histological injury vs vehicle-treated rats (rat model of AKI [2]; deep cortex, p<0.001): significantly less injury
histological injury vs vehicle-treated rats (rat model of AKI [2]; medulla or papilla): no differences
histological injury vs vehicle-treated rats (rat model of AKI [2]; superficial cortex, p<0.05): significantly less injury
TUNEL-positive cells vs vehicle-treated rats (rat model of AKI [3]; outer strip of the outer medulla, p<0.001): significantly less TUNEL-positive cells
TUNEL-positive cells vs vehicle-treated rats (rat model of AKI [3]; superficial and deep cortices, p<0.05): significantly less TUNEL-positive cells
activation of caspase-9 (mitochondrial pathway of apoptosis) (caspase-9): significantly inhibited
cytotoxicity ([4]; 1200 μM, p<0.05): cytotoxic
cytotoxicity ([4]; 15 to 600 μM): did not cause cytotoxicity
caspase-3 activation after cryopreservation injury (caspase-3): significantly inhibited
safe concentrations in cell culture experiments (cell culture): safe in concentrations ranging from 100 nM up to 5 mM
